Test results: article PMC12155096 (International Journal of Molecular Sciences, 2025)
Read-outs that look alike come from different tables or passages of the source.

Experiments:
human CYP1A2 = target: T1, human CYP1A2 (Homo sapiens, UniProt P05177); assay: biochemical
T1 sequence (P05177 1-516): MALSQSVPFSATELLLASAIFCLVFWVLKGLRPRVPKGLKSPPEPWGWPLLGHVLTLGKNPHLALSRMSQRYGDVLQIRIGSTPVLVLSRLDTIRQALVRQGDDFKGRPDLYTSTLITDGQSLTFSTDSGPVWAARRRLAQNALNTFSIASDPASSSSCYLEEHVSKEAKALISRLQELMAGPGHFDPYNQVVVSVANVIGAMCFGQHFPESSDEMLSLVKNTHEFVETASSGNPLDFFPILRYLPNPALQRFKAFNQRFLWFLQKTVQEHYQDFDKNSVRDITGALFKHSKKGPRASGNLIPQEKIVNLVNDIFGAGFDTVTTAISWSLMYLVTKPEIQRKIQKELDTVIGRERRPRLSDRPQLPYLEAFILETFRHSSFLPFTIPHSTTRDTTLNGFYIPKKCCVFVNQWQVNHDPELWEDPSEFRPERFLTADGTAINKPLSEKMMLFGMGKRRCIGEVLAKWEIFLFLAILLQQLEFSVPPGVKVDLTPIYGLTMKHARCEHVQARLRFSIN

human CYP2C9 [1] = target: T2, human CYP2C9 (Homo sapiens, UniProt P11712)
T2 sequence (P11712 whole entry): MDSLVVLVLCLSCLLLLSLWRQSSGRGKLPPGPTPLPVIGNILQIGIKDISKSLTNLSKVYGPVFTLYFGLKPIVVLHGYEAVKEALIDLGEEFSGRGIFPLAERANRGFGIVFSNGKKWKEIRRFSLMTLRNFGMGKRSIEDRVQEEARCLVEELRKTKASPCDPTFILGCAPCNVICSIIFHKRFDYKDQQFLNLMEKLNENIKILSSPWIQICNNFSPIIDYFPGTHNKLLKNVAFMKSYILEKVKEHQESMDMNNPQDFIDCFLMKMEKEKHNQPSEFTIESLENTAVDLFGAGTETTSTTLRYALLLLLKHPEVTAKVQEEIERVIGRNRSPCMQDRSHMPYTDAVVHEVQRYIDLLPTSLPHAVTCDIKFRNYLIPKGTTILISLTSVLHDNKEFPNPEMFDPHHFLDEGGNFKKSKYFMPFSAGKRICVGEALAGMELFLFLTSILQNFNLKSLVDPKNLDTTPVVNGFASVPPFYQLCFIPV

human CYP2D6 = human CYP2D6 (Homo sapiens, UniProt P10635)
human CYP2D6, sequence (P10635 whole entry): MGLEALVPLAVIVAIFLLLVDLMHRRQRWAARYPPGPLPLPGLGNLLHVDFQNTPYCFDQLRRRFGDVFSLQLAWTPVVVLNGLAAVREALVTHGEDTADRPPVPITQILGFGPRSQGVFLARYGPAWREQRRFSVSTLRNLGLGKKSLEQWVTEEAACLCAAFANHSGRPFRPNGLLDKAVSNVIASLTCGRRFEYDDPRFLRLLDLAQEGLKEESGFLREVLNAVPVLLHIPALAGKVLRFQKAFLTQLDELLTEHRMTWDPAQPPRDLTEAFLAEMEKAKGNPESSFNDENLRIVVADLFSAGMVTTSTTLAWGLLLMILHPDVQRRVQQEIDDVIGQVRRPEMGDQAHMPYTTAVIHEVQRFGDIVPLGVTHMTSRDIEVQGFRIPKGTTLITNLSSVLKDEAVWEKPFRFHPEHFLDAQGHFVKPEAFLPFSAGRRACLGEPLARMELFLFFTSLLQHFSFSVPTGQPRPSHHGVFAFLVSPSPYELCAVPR

CYP3A4 = CYP3A4 (Homo sapiens, UniProt P08684); assay: biochemical
CYP3A4, sequence (P08684 whole entry): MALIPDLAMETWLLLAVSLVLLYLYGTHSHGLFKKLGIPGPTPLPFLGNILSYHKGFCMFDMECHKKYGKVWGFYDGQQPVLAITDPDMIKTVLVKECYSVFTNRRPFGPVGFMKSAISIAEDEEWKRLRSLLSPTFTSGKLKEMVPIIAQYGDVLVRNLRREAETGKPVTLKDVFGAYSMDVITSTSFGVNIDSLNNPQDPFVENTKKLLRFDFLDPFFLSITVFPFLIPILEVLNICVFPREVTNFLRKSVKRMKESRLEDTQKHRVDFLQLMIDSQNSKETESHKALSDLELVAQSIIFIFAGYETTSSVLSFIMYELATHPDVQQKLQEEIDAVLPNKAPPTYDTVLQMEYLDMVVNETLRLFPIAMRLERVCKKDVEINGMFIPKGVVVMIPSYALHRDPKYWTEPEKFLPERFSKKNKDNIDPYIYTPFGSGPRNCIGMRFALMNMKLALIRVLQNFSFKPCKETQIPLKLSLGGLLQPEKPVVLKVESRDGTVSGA

human CYP2C19 [2] = target: T3, human CYP2C19 (Homo sapiens, UniProt P33261)
T3 sequence (P33261 whole entry): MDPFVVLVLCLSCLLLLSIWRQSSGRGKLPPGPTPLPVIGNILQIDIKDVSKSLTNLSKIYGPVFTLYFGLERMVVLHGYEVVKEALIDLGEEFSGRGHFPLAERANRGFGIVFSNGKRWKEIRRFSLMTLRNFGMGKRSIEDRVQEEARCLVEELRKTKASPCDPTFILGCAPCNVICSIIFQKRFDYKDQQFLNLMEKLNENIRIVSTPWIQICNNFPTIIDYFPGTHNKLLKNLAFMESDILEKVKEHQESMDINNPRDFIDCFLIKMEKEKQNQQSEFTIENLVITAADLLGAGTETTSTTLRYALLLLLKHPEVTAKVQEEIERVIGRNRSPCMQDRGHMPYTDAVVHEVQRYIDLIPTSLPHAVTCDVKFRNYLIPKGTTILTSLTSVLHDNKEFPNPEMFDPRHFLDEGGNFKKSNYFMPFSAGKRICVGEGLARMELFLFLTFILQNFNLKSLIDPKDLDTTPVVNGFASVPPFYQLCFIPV

human CYP2C19 [3] = target: T3, human CYP2C19; assay: biochemical
human CYP2C9 [4] = target: T2, human CYP2C9; assay: biochemical
[5] = CYP1A2 AC50 (half-maximal activity concentration)
[6] = CYP3A4 AC50 (half-maximal activity concentration)
[7] = CYP2C19 AC50 (half-maximal activity concentration)
[8] = CYP2C9 AC50 (half-maximal activity concentration)

Row | Structure (SMILES) | AC50 (human CYP1A2) [µM] | CYP2C9 AC50 (half-maximal activity concentration) (human CYP2C9 [1]) | CYP2D6 AC50 (half-maximal activity concentration) (human CYP2D6) | AC50 (CYP3A4) [µM] | CYP2C19 AC50 (half-maximal activity concentration) (human CYP2C19 [2]) | AC50 (human CYP1A2; [5]) [µM] | AC50 (CYP3A4; [6]) [µM] | AC50 (human CYP2C19 [3]; [7]) [µM] | AC50 (human CYP2C9 [4]; [8]) [µM] | AC50 (human CYP2C19 [3]) [µM] | AC50 (human CYP2C9 [4]) [µM]
1 | Clc1nnc(Cl)c2ccccc12 [1,4-Dichlorophthalazine] | 9.06 | Inactive | Inconclusive inhibitor | 5.51 | Inactive |  |  |  |  |  | 
2 | O=[N+]([O-])c1cccc(Cl)c1Cl [2,3-Dichloronitrobenzene] |  | Inconclusive activator | Inactive |  | Inactive | 34.6 | 29.1 |  |  |  | 
3 | O=[N+]([O-])c1c(Cl)cc(Cl)cc1Cl [2,4,6-Trichloronitrobenzene] |  | Inactive | Inactive |  | Inactive | 34.7 | 6.35 |  |  |  | 
4 | O=[N+]([O-])c1ccccc1CCl [2-Nitrobenzyl chloride] |  | Inactive | Inconclusive inhibitor |  | Inconclusive inhibitor | 56.1 | 36.1 |  |  |  | 
5 | CCOCCOC(=O)C=Cc1ccc(OC)cc1 [Cinoxate] |  |  | Inactive |  |  | 7.48 | 21.9 | 29.2 | 13.9 |  | 
6 | CCOC(=O)NC(C)(C)Cc1ccc(Cl)cc1 [Cloforex] |  |  | Inconclusive inhibitor |  |  | 7.64 | 14.6 | 5.34 | 15.6 |  | 
7 | O=C(c1ccccc1)C1CCCCC1 [Cyclohexylphenylketone] |  |  | Inactive |  |  | 37.4 | 29.2 | 44.9 | 47.5 |  | 
8 | CCCCOC(=O)CCCCC(=O)OCCCC [Dibutyl hexanedioate] | 41.7 |  | Inactive | 15.4 |  |  |  |  |  | 57.6 | 16.1
9 | COC(=O)C(C)Oc1ccc(Oc2ccc(Cl)cc2Cl)cc1 (centres unmarked) [Diclofop-methyl] |  |  | Inconclusive |  |  | 38.5 | 12.8 | 6.41 | 27.5 |  | 
10 | O=C(OCCOCCOC(=O)c1ccccc1)c1ccccc1 [Diethylene glycol dibenzoate] |  |  | Inactive |  |  | 8.29 | 11.4 | 34.1 | 12.7 |  | 
11 | CC(C)OC(=O)c1ccccc1C(=O)OC(C)C [Diisopropyl phthalate] |  |  | Inconclusive inhibitor |  |  | 3.31 | 31.9 | 53.2 | 50.4 |  | 
12 | COC(=O)CCCCCCCCC(=O)OC [Dimethyl decanedioate] |  |  | Inactive |  |  | 40.1 | 38.8 | 64.5 | 50.5 |  | 
13 | O=[N+]([O-])c1cc(C2CCCCC2)c(O)c([N+](=O)[O-])c1 [Dinex] |  |  | Inconclusive inhibitor |  |  | 71.1 | 22.5 | 39.8 | 8.27 |  | 
14 | CCC1OCC(COc2ccc(Oc3ccccc3)cc2)O1 (centres unmarked) [Diofenolan] | 30.8 |  | Inconclusive inhibitor | 35.7 |  |  |  |  |  | 21 | 29.4
15 | CN(C)C(=O)C(c1ccccc1)c1ccccc1 [Diphenamid] |  |  | Inactive |  |  | 50.2 | 31.2 | 53.7 | 38.4 |  | 
16 | O=C(Oc1ccccc1)c1ccccc1C(=O)Oc1ccccc1 [Diphenyl phthalate] |  |  | Inactive |  |  | 4.94 | 7.65 | 14.2 | 13.7 |  | 
17 | CCCOC(=O)c1ccc(C(=O)OCCC)nc1 [Dipropyl 2,5-pyridinedicarboxylate] | 11.3 |  | Inactive | 31.9 |  |  |  |  |  | 5.97 | 7.68
18 | CCCOC(=O)c1ccccc1C(=O)OCCC [Dipropyl phthalate] |  |  | Inactive |  |  | 2.38 | 9.91 | 7.01 | 30 |  | 
19 | CCOC(=O)Cc1cccc2ccccc12 [Ethyl 1-naphthaleneacetate] | 16.5 |  | Inactive | 27.5 |  |  |  |  |  | 25.5 | 41.5
